The values below come from patent publication US20240024335A1, “TREATMENT AND PREVENTION OF ANAEMIA OF INFLAMMATION” (Sanquin IP B.V., priority 2020, published 2024).

Data set [1] deals with donor RBCs. The data set is described as follows: Flow assay: adhesion of donor RBC to laminin-α5 in response to IL-8 and sera from sepsis patients.
Data set [2] has as its system sickle cell patients. Particulars: Ataga et al.; cited from earlier work.
The conditions of data set [3]: in vivo; cited from earlier work.

The structures appear in SMILES notation. “Also recorded” adds a separate entry of the source.

In the case of `NC(=O)C(c1ccccc1)(c1ccc(F)cc1)c1ccc(F)cc1` [Senicapoc, 4-fluoro-α-(4-fluorophenyl)-α-phenyl-benzeneacetamide], the “AI-mediated degradation of RBC in vitro” value in data set [1] (in vitro, see Example 1) is “counteracts AI-mediated degradation of RBC”. For the same compound, the “Reduction of vaso-occlusive events” value in data set [2] is given as “did not result in reduction of vaso-occlusive events”. Moreover, the Tolerability entry in data set [3] is given as “well-tolerated”.
As for `Clc1ccccc1C(c1ccccc1)(c1ccccc1)n1cccn1` [TRAM34, 1-[(2-chlorophenyl)diphenylmethyl]-1H-pyrazole], the “Adhesion of donor RBCs to laminin-α5 in response to IL-8 incubation” value in data set [1] (RBCs pre-incubated with inhibitor 30 min, then IL-8 30 min at 37° C., FIG. 8B, 8C) is listed as “inhibited; also recorded: counteracted”. In data set [1] (RBCs pre-incubated with inhibitor 30 min, then sera of sepsis patients 30 min at 37° C., FIG. 8D), the “Adhesion of donor RBCs to laminin-α5 in response to sera of sepsis patients” value was “inhibited”.
